# According to US7632972B2, “Compounds and methods for treatment of cancer and modulation of programmed cell death for melanoma and other cancer cells” (The Board of Trustees of the University of Illionis, priority 2003, dated 2009):
# System: U-937 cells
# Assay: High-throughput cell death assay on library members (MTS/PMS)
# Type: cell-based, human
# Conditions: library members at 100 μM, 24 hours
# Experimental: A three-tiered system was devised to identify compounds that selectively induce apoptosis in cancer cells. First, all compounds were screened at 100 μM in a high-throughput manner for their ability to induce death in two cancer cell lines, HL-60 (leukemia) and U-937 (lymphoma).
# Test compounds were transferred into the wells using a 96-pin transfer apparatus (V & P Scientific, San Diego Calif.) that transfers 0.2 μL of compound. The compounds were made up as 50 mM stock solutions in 100% EtOH, so one transfer gave a final concentration of 100 μM. Controls were performed in which only EtOH (containing no compound) was pin-transferred into wells containing cells. The cells were incubated with the compounds for 24 hours, and then cell death was quantitated.
row,Compound,Induction of death in U-937 cells (percentages of cell death)
1,COc1ccc([C@H](O)CNC(=O)/C=C/c2ccc(O)c(OC)c2)cc1 [Compound 14-D],59%
2,COc1ccc(/C=C/C(=O)NC[C@@H](OC)c2ccc(O)cc2)cc1O [Compound 9-E],41%
3,O=C(/C=C/c1ccc(O)cc1)NC[C@@H](O)c1ccc(O)cc1 [Compound 13-B],49%
4,COc1ccc([C@@H](CNC(=O)/C=C/c2ccc(O)c(OC)c2)OC)cc1 [Compound 10-D],31%
5,O=C(/C=C/c1ccccc1)NC[C@@H](O)c1ccccc1 [Compound 12-A],26%
6,COc1ccc([C@@H](CNC(=O)/C=C/c2ccc(OC)c(O)c2)OC)cc1 [Compound 10-E],55%
7,COc1cc(/C=C/C(=O)NC[C@@H](OC)c2ccccc2)cc(OC)c1OC [Compound 8-F],31%
8,O=C(/C=C/c1ccc(O)cc1)NCCc1ccccc1 [Compound 16-B],66%
9,COc1cccc(/C=C/C(=O)NCCc2ccc(O)cc2)c1 [Compound 17-H],41%
10,COc1ccc([C@H](O)CNC(=O)/C=C/c2ccc(O)c(O)c2)cc1 [Compound 14-C],−15%
11,O=C(/C=C/c1ccc(O)c(O)c1)NCCc1ccc(O)cc1 [Compound 17-C],15%
12,CO[C@H](CNC(=O)/C=C/c1ccc(O)cc1)c1ccc(O)cc1 [Compound 9-B],20%
13,COc1ccc([C@@H](CNC(=O)/C=C/c2ccc(O)c(O)c2)OC)cc1 [Compound 10-C],−8%
14,COc1cc(/C=C/C(=O)NC[C@@H](OC)c2ccc(O)cc2)cc(OC)c1OC [Compound 9-F],13%
15,CO[C@H](CNC(=O)/C=C/c1ccc(O)cc1)c1ccccc1 [Compound 8-B],34%
16,O=C(/C=C/c1ccc(O)cc1)NC[C@@H](O)c1ccccc1 [Compound 12-B],47%
17,COc1cc(/C=C/C(=O)NC[C@@H](O)c2ccc(O)cc2)cc(OC)c1O [Compound 13-G],16%
18,CO[C@H](CNC(=O)/C=C/c1ccccc1)c1ccc(O)cc1 [Compound 9-A],24%
19,COc1ccc([C@@H](CNC(=O)/C=C/c2cc(OC)c(OC)c(OC)c2)OC)cc1 [Compound 10-F],45%
20,COc1cc(/C=C/C(=O)NCCc2ccccc2)cc(OC)c1OC [Compound 16-F],30%
21,COc1cccc(/C=C/C(=O)NCCc2ccccc2)c1 [Compound 16-H],57%
22,COc1cccc(/C=C/C(=O)NC[C@@H](O)c2ccc(O)cc2)c1 [Compound 13-H],43%
23,COc1ccc([C@H](O)CNC(=O)/C=C/c2ccc(OC)c(O)c2)cc1 [Compound 14-E],35%
24,O=C(/C=C/c1ccccc1)NCCc1ccccc1 [Compound 16-A],58%

row,Compound,Induction of death in U-937 cells (percentages of cell death)
1,COc1ccc(CCNC(=O)/C=C/c2ccc(O)c(OC)c2)cc1 [Compound 18-D],66%
2,COc1ccc([C@@H](CNC(=O)/C=C/c2cc(OC)c(O)c(OC)c2)OC)cc1 [Compound 10-G],16%
3,COc1ccc(/C=C/C(=O)NC[C@@H](O)c2ccccc2)cc1O [Compound 12-E],28%
4,COc1cc(/C=C/C(=O)NCCc2ccccc2)ccc1O [Compound 16-D],39%
5,COc1ccc(/C=C/C(=O)NCCc2ccccc2)cc1O [Compound 16-E],60%
6,CO[C@@H](CNC(=O)/C=C/c1ccc(O)c(O)c1)c1ccc(O)cc1 [Compound 11-C],−9%
7,COc1cc(/C=C/C(=O)NC[C@H](O)c2ccc(O)cc2)cc(OC)c1O [Compound 15-G],47%
8,COc1cccc(/C=C/C(=O)NC[C@@H](O)c2ccccc2)c1 [Compound 12-H],51%
9,COc1ccc([C@@H](CNC(=O)/C=C/c2cccc(OC)c2)OC)cc1 [Compound 10-H],72%
10,COc1ccc([C@H](O)CNC(=O)/C=C/c2ccccc2)cc1 [Compound 14-A],28%
11,CO[C@H](CNC(=O)/C=C/c1ccc(O)c(O)c1)c1ccc(O)cc1 [Compound 9-C],−12%
12,COc1cc(/C=C/C(=O)NC[C@H](OC)c2ccc(O)cc2)cc(OC)c1O [Compound 11-G],−11%
13,COc1ccc([C@@H](CNC(=O)/C=C/c2ccc(O)cc2)OC)cc1 [Compound 10-B],60%
14,CO[C@H](CNC(=O)/C=C/c1ccc(O)c(O)c1)c1ccccc1 [Compound 8-C],−5%
15,COc1cc(/C=C/C(=O)NCCc2ccc(O)cc2)cc(OC)c1O [Compound 17-G],26%
16,COc1ccc(/C=C/C(=O)NC[C@@H](O)c2ccc(O)cc2)cc1O [Compound 13-E],43%
17,COc1ccc(CCNC(=O)/C=C/c2cc(OC)c(OC)c(OC)c2)cc1 [Compound 18-F],40%
18,COc1cc(/C=C/C(=O)NC[C@@H](O)c2ccccc2)cc(OC)c1OC [Compound 12-F],33%
19,COc1ccc(CCNC(=O)/C=C/c2ccc(O)cc2)cc1 [Compound 18-B],17%
20,COc1ccc(CCNC(=O)/C=C/c2ccc(O)c(O)c2)cc1 [Compound 18-C],26%
21,COc1ccc([C@H](O)CNC(=O)/C=C/c2cccc(OC)c2)cc1 [Compound 14-H],38%
22,COc1ccc(CCNC(=O)/C=C/c2ccc(OC)c(O)c2)cc1 [Compound 18-E],73%
23,COc1cc(/C=C/C(=O)NC[C@@H](O)c2ccc(O)cc2)cc(OC)c1OC [Compound 13-F],22%
24,O=C(/C=C/c1ccc(O)cc1)NCCc1ccc(O)cc1 [Compound 17-B],32%
